Results as given in publication PMC8597046, “Use of Mixture Dosing and Nonlinear Mixed Effect Modeling of Eight Environmental Contaminants in Rabbits to Improve Extrapolation Value of Toxicokinetic Data” (Environmental Health Perspectives, 2021).

How the values were obtained:
[1] = Estimation of loading and daily maintenance doses and NLME model simulations; design: species or system female rabbits; settings: oral; for Computed maintenance dose: daily; for Computed maintenance dose / Computed loading dose: scaled to the targeted CSS of Table 6; for Daily maintenance dose: to maintain serum concentration of 1 ng/mL, daily CL×Css/F; for Daily maintenance dose / Loading dose: DEHP dose for MEHP in serum; for Loading dose: to rapidly attain serum concentration of 1 ng/mL, Vss×Css/F
Description: The ultimate goal of this TK investigation was to compute a dosage regimen that allowed targeted steady-state serum concentrations to be attained rapidly for a planned TK/TD trial on the reprotoxic effect of a mixture of environmental contaminants in female rabbits. […] With that in mind, the loading and the daily maintenance doses of each compound were evaluated using Equations 12 and 13, respectively.
This risk was also the reason why the NLME model was employed to simulate the time development of the amounts of compounds in the central and peripheral compartments following administration of the daily maintenance dose of each compound over the same duration.
The loading and maintenance doses computed to ensure a nominal CSS of 1 ng/mL were scaled to determine the doses to be administrated by oral route to female rabbits to maintain the targeted CSS .

[2] = Nonlinear mixed effect (NLME) compartmental modeling of merged IV and oral serum concentrations; settings: for Volume(s) of the peripheral compartment: for PFOA first peripheral compartment
Description: A nonlinear mixed effect (NLME) modeling approach was used to analyze simultaneously all data obtained from the different rabbits after both IV and oral administrations and to provide robust estimates of the typical TK parameters.
The primary parameters of the model, namely the volume of distribution of the central compartment (V1), the first-order rate constants ( K10 , K12 , K21 , and Kabs plus K13 , K31 for PFOA) and the bioavailability (F) and their associated precisions [standard error (SE)] were estimated by minimizing an objective function value (OFV) expressed as minus twice the log of the likelihood estimation ( −2LL ). […] Marginal likelihood was approximated by using the Laplacian engine by default and, when this engine was unable to determine the SE of the estimate, the Quasi-Random Parametric Expectation Maximization (QRPEM) was selected.
Between subject variability (BSV) of the parameters was measured using the exponential model θparameter_i=θtv_parameter×exp (ηi), where θparameter_i is the parameter estimated for the ith individual, θtv_parameter is the typical population value of the parameter, and ηi is the deviation associated with the ith individual from the corresponding value of the parameter at the population level.
The distribution of ηi was assumed to be normal with a mean of 0 and a variance ω² . BSV was reported as a coefficient of variation (CV) in the original scale CV(%)=100× exp (ω^2)−1 .
The residual variance was modeled using a combined additive and proportional error model Cobsij=Cpredij(1 + ε1ij) + ε2ij, where Cobsij and Cpredij are respectively the jth observed and predicted concentrations for the ith individual, and ε1ij and ε2ij are the multiplicative and additive residual errors.
Secondary parameters were calculated from the population primary parameters.
The clearance values (CL) were estimated using Equation 5: (5) CL=K10×V1, where V1 is the volume of the central compartment and K10 is the elimination rate constant from the central compartment.
The volume of the peripheral compartment (V2) was estimated with Equation 6: (6) V2=V1×(K12/K21), where K12 and K21 are the distribution rate constants between the central and the peripheral compartments.
The clearance of distribution (Q) was estimated using Equation 7: (7) Q=K12×V1, with […] and K12 as defined above.
The volume of distribution associated with the terminal phase was estimated with Equation 10: (10) VZ=CL/λZ, with λZ as defined above.
The AUC was computed as a secondary parameter using Equation 11: (11) AUC=Dose/CL.
The terminal half-life was estimated with Equation 1, as previously described.

[3] = female, New Zealand white (INRA 1777 line), rabbit, in vivo
[4] = female, New Zealand white (INRA 1777 line), rabbit, in vivo, po, Oral bioavailability (F), NLME model
[5] = female, New Zealand white, rabbit, in vivo
[6] = female, New Zealand white, rabbit, in vivo, population secondary parameter, mean
[7] = female, New Zealand white, rabbit, in vivo, iv
[8] = female, New Zealand white, rabbit, in vivo, po
[9] = female, New Zealand white, rabbit, in vivo, po, Bioavailability, population secondary parameter, mean, as fraction
[10] = population primary parameter, typical value, mean
[11] = population primary parameter, typical value, mean, MEHP after oral DEHP
[12] = population secondary parameter, mean

In the case of `O=C(O)C(F)(F)C(F)(F)C(F)(F)C(F)(F)C(F)(F)C(F)(F)C(F)(F)F` [PFOA, perfluorooctanoic acid], the Computed maintenance dose [1] is reported as 9.5 µg/kg, the Computed loading dose [1] is reported as 10 µg/kg and the Daily maintenance dose [1] is reported as 0.18 µg/kg. The Loading dose [1] was 0.19 µg/kg, the “tvK13 (distribution rate constant)” value ([2]; PFOA 3-compartments model) was 0.0039 h⁻¹ and the “tvK31 (distribution rate constant)” value ([2]; PFOA 3-compartments model) was 0.0080 h⁻¹. The “Volume(s) of the peripheral compartment, second value” ([2]; PFOA three-compartment model, second peripheral compartment) was 0.049 L/kg, the Vd [2, 3] was 0.19 L/kg and the k el [2, 3] was 2.08e-05 s⁻¹. For the same molecule, the bioavailability [2, 4] was 100%, the MRT [2, 5] was 1.04 days and the half-life [2, 5] was 3.83 days. The clearance [2, 6] was < 0.167 mL/min/kg, the AUC [2, 7] was 26 µM·h and the AUC [2, 8] was 128 µM·h. The bioavailability [2, 9] was 100%, the AUCVO/dose ([2]; oral dosing) was 133 μmol×h/L per μmol/kg BW and the “tvK12 (distribution rate constant)” value [2, 10] was 0.047 h⁻¹. The “tvK21 (distribution rate constant)” value [2, 10] was 0.127 h⁻¹, the “tvVc (volume of the central compartment)” value [2, 10] was 0.101 L/kg and the “tvKabs (rate constant of absorption)” value [2, 11] was 1.408 h⁻¹. For the same molecule, the “Volume(s) of the peripheral compartment” value [2, 12] was 0.037 L/kg.

Work on `O=S(=O)(O)C(F)(F)C(F)(F)C(F)(F)C(F)(F)C(F)(F)C(F)(F)C(F)(F)C(F)(F)F` [nPFOS, linear isomer of perfluorooctane sulfonate] yielded a Daily maintenance dose [1] of 0.0077 µg/kg, a Loading dose [1] of 0.37 µg/kg and an MRT ([2]; NLME model) of 47.6 days. The “Oral bioavailability (F)” value ([2]; NLME model) was “total”, the “Terminal HL” value ([2]; NLME model) was 33 days and the AUCIV ([2]; dosing time to infinity after intravenous dosing, population secondary parameter) was 355 µM·h. The AUCVO ([2]; dosing time to infinity after oral dosing, population secondary parameter, MEHP after oral DEHP) was 1,246 μmol×h/L, the AUCVO/dose ([2]; oral dosing) was 3,115 μmol×h/L per μmol/kg BW and the bioavailability ([2]; oral, population secondary parameter, mean, as fraction) was 1. For the same molecule, the “tvK10 (elimination rate constant from the central compartment)” value [2, 10] was 0.00111 h⁻¹, the “tvK12 (distribution rate constant)” value [2, 10] was 0.153 h⁻¹ and the “tvK21 (distribution rate constant)” value [2, 10] was 0.581 h⁻¹. For the same molecule, the “tvVc (volume of the central compartment)” value [2, 10] was 0.290 L/kg, the “tvKabs (rate constant of absorption)” value [2, 11] was 0.252 h⁻¹ and the Clearance [2, 12] was 0.00533 mL/min/kg. For the same molecule, the VSS [2, 12] was 0.37 L/kg, the “Volume(s) of the peripheral compartment” value [2, 12] was 0.077 L/kg and the half-life ([2]; terminal, population secondary parameter, mean) was 33 days.

With `ClC(Cl)=C(c1ccc(Cl)cc1)c1ccc(Cl)cc1` [pp′DDE, 1,1-Dichloro-2,2-bis(p-chlorophenyl)ethylene] the Computed maintenance dose [1] was 95 µg/kg, the Computed loading dose [1] was 1,039 μg/kg and the Daily maintenance dose [1] was 4.5 µg/kg. For the same molecule, the Loading dose [1] was 49 µg/kg, the Vd [2, 3] was 35 L/kg and the k el [2, 3] was 1.33e-05 s⁻¹. For the same molecule, the bioavailability ([2]; female, New Zealand white (INRA 1777 line), rabbit, in vivo, po, Oral bioavailability (F)) was 72%, the MRT [2, 5] was 10.9 days and the half-life [2, 5] was 11.3 days. For the same molecule, the clearance [2, 5] was 2.17 mL/min/kg, the AUC [2, 7] was 17 µM·h and the AUC [2, 8] was 77 µM·h. For the same molecule, the AUCVO/dose [2, 8] was 5.35 μmol×h/L per μmol/kg BW, the bioavailability ([2]; female, New Zealand white, rabbit, in vivo, po, Bioavailability) was 72% and the “tvK12 (distribution rate constant)” value [2, 10] was 0.08353 h⁻¹. For the same molecule, the “tvK21 (distribution rate constant)” value [2, 10] was 0.00729 h⁻¹, the “tvVc (volume of the central compartment)” value [2, 10] was 2.821 L/kg and the “tvKabs (rate constant of absorption)” value [2, 11] was 0.01994 h⁻¹. The “Volume(s) of the peripheral compartment” value [2, 12] was 32 L/kg.

Molecule `Cl[C@H]1[C@H](Cl)[C@@H](Cl)[C@H](Cl)[C@@H](Cl)[C@@H]1Cl` [β-HCH, β-hexachlorocyclohexane] has a Computed maintenance dose [1] of 11 µg/kg, a Computed loading dose [1] of 163 µg/kg and a Daily maintenance dose [1] of 2.4 µg/kg. For the same molecule, the Loading dose [1] was 37 µg/kg, the Vd [2, 3] was 33 L/kg and the bioavailability [2, 4] was > 85%. It also gave a k el ([2]; female, New Zealand white (INRA 1777 line), rabbit, serum, other: intravenous and oral data merged) of 4.69e-06 s⁻¹, an MRT [2, 5] of 15.8 days and a half-life [2, 5] of 13.2 days. It also gave a clearance [2, 6] of 1.45 mL/min/kg, an AUC [2, 7] of 20 µM·h and an AUC [2, 8] of 87 µM·h. The bioavailability [2, 9] was 88%, the AUCVO/dose ([2]; oral dosing) was 12.5 μmol×h/L per μmol/kg BW and the “tvK12 (distribution rate constant)” value [2, 10] was 0.0593 h⁻¹. For the same molecule, the “tvK21 (distribution rate constant)” value [2, 10] was 0.0110 h⁻¹, the “tvVc (volume of the central compartment)” value [2, 10] was 5.1310 L/kg and the “tvKabs (rate constant of absorption)” value [2, 11] was 0.0955 h⁻¹. The “Volume(s) of the peripheral compartment” value [2, 12] was 28 L/kg.
